Key:
[1] = molecular target: recombinant JAK1 (amino acids 866-1154) (Homo sapiens (Human), UniProt P23458); assay: Enzyme inhibition studies, JAK1 (5 mM ATP, Caliper); type: biochemical
Procedure: (§1) JAK enzyme was expressed as N-terminal GST fusion in insect cells and purified by glutathione-affinity and size-exclusion chromatographies. Enzymes were assayed at their approximated high end of physiological ATP concentration of 5 mM, in the presence of inhibitor dosed at 30, 3, 0.3, 0.03, 0.003 and 0 μM final test concentrations.
(§2) Phosphorylated and unphosphotylated peptides were separated and quantified by a Caliper LC3000 system (Caliper Life Sciences, MA) for calculating percent inhibition.

[2] = molecular target: recombinant JAK2 (amino acids 831-1132) (Homo sapiens (Human), UniProt O60674); assay: Enzyme inhibition studies, JAK2 (5 mM ATP, Caliper); type: biochemical
Chain of recombinant JAK2 (amino acids 831-1132) (O60674 831-1132): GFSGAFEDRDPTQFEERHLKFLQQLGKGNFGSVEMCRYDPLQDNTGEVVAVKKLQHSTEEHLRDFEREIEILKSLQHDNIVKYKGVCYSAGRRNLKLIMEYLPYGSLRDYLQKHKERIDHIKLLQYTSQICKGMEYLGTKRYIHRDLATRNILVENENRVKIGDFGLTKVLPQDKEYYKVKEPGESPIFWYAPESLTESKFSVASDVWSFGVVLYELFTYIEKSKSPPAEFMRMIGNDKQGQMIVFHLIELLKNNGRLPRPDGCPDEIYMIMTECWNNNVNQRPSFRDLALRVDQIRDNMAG
Procedure: as §1, §2

[3] = molecular target: recombinant JAK3 (amino acids 781-1124) (Homo sapiens (Human), UniProt P52333); assay: Enzyme inhibition studies, JAK3 (5 mM ATP, Caliper); type: biochemical
Chain of recombinant JAK3 (amino acids 781-1124) (P52333 781-1124): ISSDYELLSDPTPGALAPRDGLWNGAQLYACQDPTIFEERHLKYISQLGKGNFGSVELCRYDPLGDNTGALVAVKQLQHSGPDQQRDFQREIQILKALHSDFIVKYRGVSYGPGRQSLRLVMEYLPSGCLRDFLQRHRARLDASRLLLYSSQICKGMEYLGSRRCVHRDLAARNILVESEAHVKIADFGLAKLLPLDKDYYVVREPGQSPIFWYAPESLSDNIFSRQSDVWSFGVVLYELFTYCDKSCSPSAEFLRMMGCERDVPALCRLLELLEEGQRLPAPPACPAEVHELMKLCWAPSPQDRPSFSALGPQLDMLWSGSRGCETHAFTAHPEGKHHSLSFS
Procedure: as §1, §2

[4] = tested on: IL-13 induced STAT6 promotor luciferase reporter in U937 monocytes (U937-STAT6-Luc); assay: Cellular interleukin (IL-13) induced JAK-STAT6-luciferase assay (pSTAT6); type: cell-based; conditions: Homo sapiens, U-937; IL-13 induced STAT6-luciferase, U937-STAT6-Luc cells
Procedure: Cells were harvested by centrifugation at 250 g for 5 min and resuspended in Assay buffer (20 mM HEPES, 1×HBSS and 0.1% BSA) to 1000 cells pr μl. For stimulation of cells was used interleukin (IL-13) also dissolved in Assay buffer to […]. […] Test and control compounds were applied to assay plates (low vol white 384-well plates) in serial dilutions from 10 mM to 0.5 nM at 5 nl pr well in DMSO.
To each well was added 4 μl cells and 4 μl interleukin (IL-13) and the plates were sealed and incubated at 37° C. for 4½ h and then at room temperature for 30 min. The assay was developed by addition of 4 μl pr well of SteadyGlo (Promega) and after […] the plates were read at an Envision plate reader with luminescence filter.

Chain of recombinant JAK1 (amino acids 866-1154) (P23458 866-1154): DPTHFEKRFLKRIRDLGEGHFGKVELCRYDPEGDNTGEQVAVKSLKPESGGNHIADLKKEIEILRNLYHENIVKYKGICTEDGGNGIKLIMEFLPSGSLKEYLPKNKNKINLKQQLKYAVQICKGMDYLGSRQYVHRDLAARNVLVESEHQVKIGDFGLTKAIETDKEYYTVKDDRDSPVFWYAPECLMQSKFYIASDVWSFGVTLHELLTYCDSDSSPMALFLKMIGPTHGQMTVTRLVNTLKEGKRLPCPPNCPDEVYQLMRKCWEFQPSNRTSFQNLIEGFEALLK

IC50 [1] [nM]	IC50 [2] [nM]	IC50 [3] [µM]	IC50 [4] [nM]	Structure (SMILES)
143	> 30000	> 30	423	CC[C@@H](C(=O)Nc1cccc2c(-c3nc(Nc4cccc(S(C)(=O)=O)c4F)ncc3C)c[nH]c12)N1C[C@H](C)N(C)[C@@H](C)C1 [Example 19, (S)-N-(3-(2-((2-fluoro-3-(methylsulfonyl)phenyl)amino)-5-methylpyrimidin-4-yl)-1H-indol-7-yl)-2-((3S,5S)-3,4,5-trimethylpiperazin-1-yl)butanamide]
986	> 30000	> 30	2230	COC[C@@H](C(=O)Nc1cccc2c(-c3nc(Nc4cccc(S(C)(=O)=O)c4F)ncc3C)c[nH]c12)N1C[C@H](C)N(C)[C@@H](C)C1 [Example 21, (S)-N-(3-(2-((2-fluoro-3-(methylsulfonyl)phenyl)amino)-5-methylpyrimidin-4-yl)-1H-indol-7-yl)-3-methoxy-2-((3S,5S)-3,4,5-trimethylpiperazin-1-yl)propanamide]
< 3	2560	> 30	29	COC[C@H](C(=O)Nc1cccc2c(-c3nc(Nc4cccc(S(C)(=O)=O)c4F)ncc3C)c[nH]c12)N1C[C@H](C)N(C)[C@@H](C)C1 [Example 22, (R)-N-(3-(2-((2-fluoro-3-(methylsulfonyl)phenyl)amino)-5-methylpyrimidin-4-yl)-1H-indol-7-yl)-3-methoxy-2-((3S,5S)-3,4,5-trimethylpiperazin-1-yl)propanamide]
183	> 30000	> 30	866	CC[C@@H](C(=O)Nc1cccc2c(-c3nc(Nc4cccc(S(C)(=O)=O)c4F)ncc3F)c[nH]c12)N1C[C@H](C)N(C)[C@@H](C)C1 [Example 23, (S)-N-(3-(5-fluoro-2-(2-fluoro-3-(methylsulfonyl)phenylamino)pyrimidin-4-yl)-1H-indol-7-yl)-2-((3S,5S)-3,4,5-trimethylpiperazin-1-yl)butanamide]
4.2	3460	> 30	42	Cc1cnc(Nc2cccc(S(C)(=O)=O)c2F)nc1-c1c[nH]c2c(NC(=O)[C@@H](C)N3CCNCC3)cccc12 [Example 24, (R)-N-(3-(2-((2-fluoro-3-(methylsulfonyl)phenyl)amino)-5-methylpyrimidin-4-yl)-1H-indol-7-yl)-2-(piperazin-1-yl)propanamide]
22.8	6590	> 30	63	Cc1cnc(Nc2cccc(S(C)(=O)=O)c2F)nc1-c1c[nH]c2c(NC(=O)[C@H](C)N3CCNCC3)cccc12 [Example 25, (S)-N-(3-(2-((2-fluoro-3-(methylsulfonyl)phenyl)amino)-5-methylpyrimidin-4-yl)-1H-indol-7-yl)-2-(piperazin-1-yl)propanamide]
< 3	456	> 30	38	CC[C@H](C(=O)Nc1cccc2c(-c3nc(Nc4cccc(S(C)(=O)=O)c4F)ncc3C)c[nH]c12)N1C[C@@H](C)N[C@H](C)C1 [Example 26, (R)-2-((3R,5R)-3,5-dimethylpiperazin-1-yl)-N-(3-(2-((2-fluoro-3-(methylsulfonyl)phenyl)amino)-5-methylpyrimidin-4-yl)-1H-indol-7-yl)butanamide]
< 3	162	> 30	41	CC[C@@H](C(=O)Nc1cccc2c(-c3nc(Nc4cccc(S(C)(=O)=O)c4F)ncc3C)c[nH]c12)N1C[C@@H](C)N[C@H](C)C1 [Example 27, (S)-2-((3R,5R)-3,5-dimethylpiperazin-1-yl)-N-(3-(2-((2-fluoro-3-(methylsulfonyl)phenyl)amino)-5-methylpyrimidin-4-yl)-1H-indol-7-yl)butanamide]
45.2	7410	> 30	147	COC[C@@H](C(=O)Nc1cccc2c(-c3nc(Nc4cccc(S(C)(=O)=O)c4F)ncc3C)c[nH]c12)N1C[C@@H](C)N[C@H](C)C1 [Example 28, (S)-2-((3R,5R)-3,5-dimethylpiperazin-1-yl)-N-(3-(2-((2-fluoro-3-(methylsulfonyl)phenyl)amino)-5-methylpyrimidin-4-yl)-1H-indol-7-yl)-3-methoxypropanamide]
< 3	1200	> 30	39.9	COC[C@H](C(=O)Nc1cccc2c(-c3nc(Nc4cccc(S(C)(=O)=O)c4F)ncc3C)c[nH]c12)N1C[C@@H](C)N[C@H](C)C1 [Example 29, (R)-2-((3R,5R)-3,5-dimethylpiperazin-1-yl)-N-(3-(2-((2-fluoro-3-(methylsulfonyl)phenyl)amino)-5-methylpyrimidin-4-yl)-1H-indol-7-yl)-3-methoxypropanamide]
14.2	1160	> 30	72	CC[C@@H](C(=O)Nc1cccc2c(-c3nc(Nc4cccc(S(C)(=O)=O)c4F)ncc3F)c[nH]c12)N1C[C@@H](C)N[C@H](C)C1 [Example 30, (S)-2-((3R,5R)-3,5-dimethylpiperazin-1-yl)-N-(3-(5-fluoro-2-((2-fluoro-3-(methylsulfonyl)phenyl)amino)pyrimidin-4-yl)-1H-indol-7-yl)butanamide]
6.4	1790	> 30	74	CC[C@H](C(=O)Nc1cccc2c(-c3nc(Nc4cccc(S(C)(=O)=O)c4F)ncc3F)c[nH]c12)N1C[C@@H](C)N[C@H](C)C1 [Example 31, (R)-2-((3R,5R)-3,5-dimethylpiperazin-1-yl)-N-(3-(5-fluoro-2-((2-fluoro-3-(methylsulfonyl)phenyl)amino)pyrimidin-4-yl)-1H-indol-7-yl)butanamide]
482	> 30000	> 30	933	COC[C@@H](C(=O)Nc1cccc2c(-c3nc(Nc4cccc(S(C)(=O)=O)c4F)ncc3F)c[nH]c12)N1C[C@@H](C)N[C@H](C)C1 [Example 32]
< 3	1930	> 30	55	COC[C@H](C(=O)Nc1cccc2c(-c3nc(Nc4cccc(S(C)(=O)=O)c4F)ncc3F)c[nH]c12)N1C[C@@H](C)N[C@H](C)C1 [Example 33, (R)-2-((3R,5R)-3,5-dimethylpiperazin-1-yl)-N-(3-(5-fluoro-2-((2-fluoro-3-(methylsulfonyl)phenyl)amino)pyrimidin-4-yl)-1H-indol-7-yl)-3-methoxypropanamide]
70.3	> 30000	> 30	167	CC[C@@H](C(=O)Nc1cccc2c(-c3nc(Nc4cccc(S(C)(=O)=O)c4F)ncc3C)c[nH]c12)N1CCCN(C)CC1 [Example 36, (S)-N-(3-(2-((2-fluoro-3-(methylsulfonyl)phenyl)amino)-5-methylpyrimidin-4-yl)-1H-indol-7-yl)-2-(4-methyl-1,4-diazepan-1-yl)butanamide]
< 3	968	> 30	26.9	CC[C@H](C(=O)Nc1cccc2c(-c3nc(Nc4cccc(S(C)(=O)=O)c4F)ncc3C)c[nH]c12)N1CCCN(C)CC1 [Example 37, (R)-N-(3-(2-((2-fluoro-3-(methylsulfonyl)phenyl)amino)-5-methylpyrimidin-4-yl)-1H-indol-7-yl)-2-(4-methyl-1,4-diazepan-1-yl)butanamide]

Source: patent US10961228B2, “JAK1 selective inhibitors” (AstraZeneca AB, priority 2017, dated 2021)
